Patent publication US20190365784A1, “USE OF BRASSINOSTEROID ANALOGS FOR THE TREATMENT OF DERMAL DISORDERS BY SELECTIVELY MODULATING LIVER X RECEPTORS (LXR) AND DERMAL DISEASE TREATMENT BY BRASSINOSTEROID ANALOGS ACTING AS SELECTIVE LIVER X RECEPTOR (LXR) MODULATORS” (CONSEJO NACIONAL DE INVESTIGACIONES CIENTÍFICAS Y TÉCNICAS …, priority 2015, published 2019)
Marks after values point to notes of the source that are not given here.

What was measured:
[1] = Liver weight and gross morphology (hepatic steatosis) in C57BI mice after 5 days i.p. treatment; format: in vivo; settings: male C57BI mice; Compound I 10 mg/kg i.p. daily for 5 days
Protocol: Administration of synthetic LXR agonists such as T0901317 induces a marked increment of liver lipogenesis that leads to hepatic steatosis and plasma hypertriglyceridemia.
Male C57BI mice received daily for 5 days intraperitoneal injections containing either 10 mg Compound I/kg, or 5 mg T0901317/kg, or vehicle [90% (v/v) DMSO in apyrogenic sterile water]. On the sixth day of the assay, the animals were fasted for 4 h before decapitation. Blood plasma was obtained for the determination of total cholesterol, HDL-cholesterol and triglyceride contents. The livers were resected, and their weights and colors used as gross markers of increased liver triglyceride contents.

granuloma formation = test: Granuloma formation in a mouse model of subchronic inflammation; format: in vivo; settings: mice; 10 mg/kg body weight; previously showed, data not shown
[2] = system: imiquimod-induced skin lesions; test: Imiquimod-induced psoriasis model in mice: clinical signs and dorsal skin histopathology; format: in vivo; design: key to Hyperkeratosis, protective effect / Epidermal serocellular crust, protective effect / Acanthosis, protective effect / Dermal inflammatory infiltrates, protective effect: the (+) sign represents the presence of a protective effect; a (−) sign represents the absence of protective effect; settings: for Acanthosis (0-4), group mean score of dorsal skin / Basliar papillae (0-4), group mean score of dorsal skin / Dermal inflammatory infiltrates (0-4), group mean score of dorsal skin / Dilated tortuous capillaries (0-4), group mean score of dorsal skin / Epidermal micro-abscesses (0-4), group mean score of dorsal skin / Epidermal serocellular rust (0-4), group mean score of dorsal skin / Hyperkeratosis (0-4), group mean score of dorsal skin / Mean Global Score, dorsal skin / Parakeratosis (0-4), group mean score of dorsal skin: psoriatic mice; for Acanthosis (0-4), group mean score of dorsal skin / Basliar papillae (0-4), group mean score of dorsal skin / Dermal inflammatory infiltrates (0-4), group mean score of dorsal skin / Dilated tortuous capillaries (0-4), group mean score of dorsal skin / Epidermal micro-abscesses (0-4), group mean score of dorsal skin / Epidermal serocellular rust (0-4), group mean score of dorsal skin / Hyperkeratosis (0-4), group mean score of dorsal skin / Mean Global Score, dorsal skin / Parakeratosis (0-4), group mean score of dorsal skin / severity of microscopic alterations of back skin (histopathology): QD 9 days
From the text: To test whether Compound I might ameliorate the signs of psoriasis, we topically administered Compound I to imiquimod-induced skin lesions in mice. The imiquimod mouse model of psoriasis-like skin inflammation is characterized by lesions that show augmented epidermal cell proliferation, abnormal keratinocyte differentiation, neutrophil accumulation in epidermal microabcesses, and neoangiogenesis.
For this study, thirty two 8-week old female Balbc/J mice were housed […] in positively ventilated polysulfonate cages with HEPA filtered air at a density of 4 mice per cage. The animal room was lighted entirely with artificial fluorescent lighting, with a controlled 12 h light/dark cycle (6 am to 6 pm light). The normal temperature and relative humidity ranges in the animal rooms were 22±4° C. and 50±15%, respectively. The animal rooms were set to have a minimum of 15 air exchanges per hour. Filtered tap water, acidified to a pH of 2.5 to 3.0, and standard rodent chow were provided ad libitum. After 1 week of acclimation mice were randomized into 4 groups (n=8/each) as shown below (Table 1).
1. IMQ induction: On day 0 all grouped mice received a topical dose of 62.5 mg of IMQ cream (5%) on the shaved back for 6 consecutive days. (Day 0 to Day 5)
3. Mice were scored for clinical parameters of disease based on degree of erythema, scaling and thickening independently on a scale of 0-4. 0=none; 1=slight; 2=moderate; 3=moderate to severe: 4=severe. These observations were recorded on day 0, 2, 4, 6, and 8. On the same days, back skin thickness was measured with calipers.
5. Mice were sacrificed on day 10 by CO2 asphyxiation.
6. A part of the back skin was harvested and fixed for histology. Slides were processed, stained with H&E for histology assessment.
Dorsal skin sections were evaluated histopathologically for evidence of key features of psoriasis, such as parakeratosis, hyperkeratosis (thickening of the stratum corneum), acanthosis (diffuse thickening of the stratum spinosum of the skin), epidermal serocellular crusts, epidermal microabscesses, basilar papillae, dermal inflammatory infiltrates and dilated tortuous capillaries (Table 2. Histopathological scoring system and definition used in the Imiquimod psoriasis model).

LXR-alpha = LXR-alpha expression in HepG2 cells (real time PCR); format: cell-based, human; settings: 10 uM, 6 h
Protocol: The cells were incubated for 6 h in the presence of either Compound I (10 uM), or Compound II (10 uM), or the commercial LXR agonist GW3965 (1 uM), or Vehicle [DMSO, 0.1% (v/v)]). To obtain RNA, at the end of the incubation the cells were collected by centrifugation at 1,000 rpm for 2 min, washed with phosphate buffered saline, and lysed in 300 ul TRIZOL (Invitrogen). RNA samples were suspended in ul of RNAse free water, and their concentration determined (NanoDrop spectrophotometer). The ratio of the absorbance at 260 and 280 nm was used to assess RNA purity of an RNA preparation, with a value of 1.8-2.0 indicating pure RNA. To obtain cDNA, 1 ug of total RNA was denatured by incubating for 5 min at 70° C., before the addition of a mixture containing 0.5 ug oligo-dT primers and 25 ng/ml of random primers (Invitrogen), 1.0 mM dNTPs (Invitrogen), and 200 U M-MLV reverse transcriptase (Promega); after this the mixture was retrotranscribed at 37° C. for 60 min, followed by an incubation at 95° C. for 5 min to inactivate the enzyme. For the real time PCR amplification (Stratagene Thermal Cycler), cDNA samples were diluted 1/5 to 1/10 depending on the target amplification product. Calibration curves were obtained by use of eight successive 1:2 sample dilutions. […]

[3] = 0.1% (w/v) Compound I vs 0.1% (w/v) Clobetasol as printed
[4] = topical 0.10%, summary of Table 3

In the case of `CC[C@@H](C(C)C)[C@H](O)[C@@H](O)[C@@H](C)[C@H]1CC[C@H]2[C@@H]3CCC4=CC(=O)CC[C@]4(C)[C@H]3CC[C@]12C` [Compound I, (22S,23S)-22,23-dihydroxystigmast-4-en-3-one], the “liver (hepatic) steatosis” value [1] is reported as “no signs”, the granuloma formation (granuloma formation) is reported as “reduces granuloma formation” and the “epidermal sero-cellular crust reduced relative to Clobetasol-treated mice” value [2, 3] is reported as 50%. The “hyperkeratosis reduced relative to Clobetasol-treated mice” value [2, 3] was 50%, the “global response score of dorsal skin, lower vs. vehicle-treated animals” value ([2]; Compound I 0.1% topical, 9 days) was roughly 26% and the “back skin thickening (calipers)” value ([2]; after 9 days topical, Compound I 0.05% and 0.1% (w/v), clobetasol 0.05% cream) was “None of the assayed Compound I's doses prevented back skin thickening”. For the same compound, the “erythema reduction relative to vehicle-treated mice” value ([2]; day 8, both Compound I doses 0.05% and 0.1% (w/v), topical) was 50%, the “skin erythema (clinical score 0-4, in words)” value ([2]; day 8, topical QD 9 days, both Compound I doses 0.05% and 0.1% (w/v), clobetasol 0.05% cream) was “slight” and the “scaling (clinical score 0-4, in words)” value ([2]; day 8, topical QD 9 days, both Compound I doses, clobetasol 0.05% cream) was “no improvement”. The “Acanthosis (0-4), group mean score of dorsal skin” value ([2]; topical 0.05%) was 2.4, the “Basliar papillae (0-4), group mean score of dorsal skin” value ([2]; topical 0.05%) was 0.0 and the “Dermal inflammatory infiltrates (0-4), group mean score of dorsal skin” value ([2]; topical 0.05%) was 2.0. The “Dilated tortuous capillaries (0-4), group mean score of dorsal skin” value ([2]; topical 0.05%) was 0.0, the “Epidermal micro-abscesses (0-4), group mean score of dorsal skin” value ([2]; topical 0.05%) was 0.0 and the “Epidermal serocellular rust (0-4), group mean score of dorsal skin” value ([2]; topical 0.05%) was 0.4. The “Hyperkeratosis (0-4), group mean score of dorsal skin” value ([2]; topical 0.05%) was 1.3*, the “Mean Global Score, dorsal skin” value ([2]; topical 0.05%) was 6.4 and the “Parakeratosis (0-4), group mean score of dorsal skin” value ([2]; topical 0.05%) was 0.4. For the same compound, the “Acanthosis (0-4), group mean score of dorsal skin” value ([2]; topical 0.10%) was 2.1, the “Basliar papillae (0-4), group mean score of dorsal skin” value ([2]; topical 0.10%) was 0.0 and the “Dermal inflammatory infiltrates (0-4), group mean score of dorsal skin” value ([2]; topical 0.10%) was 1.5. The “Dilated tortuous capillaries (0-4), group mean score of dorsal skin” value ([2]; topical 0.10%) was 0.0, the “Epidermal micro-abscesses (0-4), group mean score of dorsal skin” value ([2]; topical 0.10%) was 0.0 and the “Epidermal serocellular rust (0-4), group mean score of dorsal skin” value ([2]; topical 0.10%) was 0.3†. The “Hyperkeratosis (0-4), group mean score of dorsal skin” value ([2]; topical 0.10%) was 0.9**, the “Mean Global Score, dorsal skin” value ([2]; topical 0.10%) was 4.9 and the “Parakeratosis (0-4), group mean score of dorsal skin” value ([2]; topical 0.10%) was 0.0. The “severity of microscopic alterations of back skin (histopathology)” value ([2]; topical 0.05%) was “slightly lower severity”, the “severity of microscopic alterations of back skin (histopathology)” value ([2]; topical 0.10% (w/v)) was “lower than in samples from vehicle-treated psoriatic controls and 0.05% (w/v) Compound I-treated mice” and the “Acanthosis, protective effect” value [2, 4] was “−”. The “Dermal inflammatory infiltrates, protective effect” value [2, 4] was “−”, the “Epidermal serocellular crust, protective effect” value [2, 4] was “+” and the “Hyperkeratosis, protective effect” value [2, 4] was “+”. For the same compound, the “induction of LXR-alpha expression compared with DMSO treated HepG2” value (LXR-alpha) was 1.5 times.
